Consider 1 molecule from patent US8617607B2, “Sustained release formulations of psychoactive drugs” (TYRX, Inc., priority 2008, dated 2013).

SMILES strings stand for the structures.

For the data set the following is noted: 0.1% solution, PBS, 37° C.

`Cc1cc2c(s1)Nc1ccccc1N=C2N1CCN(C)CC1` [Olanzapine, 2-methyl-4-(4-methyl-1-piperazinyl)-10H-thieno[2,3-b][1,5]benzodiazepine]: the “time for which olanzapine was stable” value was not below 14 days.
